Laboratory results: publication PMC6778101 (Nature Communications, 2019)
Ends that are not written are not given here. Peptide text beside a SMILES is read from it.

Legend:
[1] = system: E. coli K-12 BW25113; test: microbe, parasite or virus in culture; assay type: cell-based, Escherichia coli; details: for MIC: starting wild-type strain of the evolution experiment, broth dilution, MS medium, 5 × 10^5 cells/mL, 30 °C, 24 h, MIC = OD600 < 0.05; for MIC in 30 °C / MIC in 37 °C: strain not given
[2] = system: E. coli K-12 BW25113 carrying ASKA plasmids; test: microbe, parasite or virus in culture; assay type: cell-based, Escherichia coli; details: for MIC fold change: MIC of ASKA pooled library / MIC of E.coli carrying empty ASKA plasmid; for MIC value of E. coli K-12 BW25113 carrying the empty plasmid of the ASKA library / MIC value of E. coli K-12 BW25113 carrying the pooled plasmids of the ASKA library: MS medium + 10 µg mL−1 CHL + 500 µM IPTG, 5 × 10^5 cells, 16–18 h, 37 °C; for Average fold change of the 3 replicates (MIC pooled ASKA library / MIC empty plasmid): mean of three biological replicates
Outline: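 E. coli BW25113 transformed with the pooled ASKA ORF overexpression library, or empty-vector control, grown with CHL, induced with IPTG.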

[3] = system: Human red blood cells; test: Hemolysis assay; assay type: cell-based; details: for ATI (activity/toxicity index), ratio MHC / MM: MHC on human red blood cells / median of MICs in E. coli K12
Procedure: Human red blood cells (hemoglobin concentration (Hb) 150–160 g L^−1) were collected from apparently healthy patients in EDTA tubes. 600 µL of EDTA-blood were washed in TBS buffer (10 mM TRIS, 150 mM NaCl) and centrifuged at 1500 × g for 1 min until the supernatant became colorless. The final pellet was diluted to 5 mL with TBS buffer. Hundred microliters of this cell suspension was pipetted into sterile Eppendorf tubes together with twofold serial dilutions of each compound to a final volume of 200 μl. Final concentrations ranged between 2500 µg mL^−1–9.75 µg mL^−1. Following incubation for one hour at 37 °C, samples were centrifuged at 1500 g for 1 min to precipitate the red blood cells. All supernatants were transferred to sterile 96-well plates for the measurement of their direct optical density (OD) at 565 nm wavelength (Multiskan FC microplate reader, Thermo Scientific). Melittin (Bachem) at concentration of 50 µg.mL^−1 and TBS were used as positive (100% hemolysis) and negative (no hemolysis) controls, respectively. Haemolytic effect of each peptide at each concentration was calculated as follows: Hemolysis effect = (Compound OD565nm − TBS OD565nm) × 100/(Melitin OD565nm − TBS OD565nm).

[4] = replicate 1 (first line per drug)
[5] = replicate 2 (second line per drug)
[6] = replicate 3 (third line per drug)

## NC[C@H]1O[C@H](O[C@H]2[C@H](O)[C@@H](O[C@H]3O[C@H](CO)[C@@H](O)[C@H](N)[C@H]3O)[C@H](N)C[C@@H]2N)[C@H](O)[C@@H](O)[C@@H]1O [KAN, Kanamycin]
[1]
  MIC: 8 µg/mL
[2]; [4]
  MIC fold change: 1.3
[2]; [5]
  MIC fold change: 1.3
[2]; [6]
  MIC fold change: 1.69
[2]; Replicate 1
  MIC value of E. coli K-12 BW25113 carrying the empty plasmid of the ASKA library: 9.65 µg/mL
  MIC value of E. coli K-12 BW25113 carrying the pooled plasmids of the ASKA library: 12.55 µg/mL
[2]; Replicate 2
  MIC value of E. coli K-12 BW25113 carrying the empty plasmid of the ASKA library: 7.43 µg/mL
  MIC value of E. coli K-12 BW25113 carrying the pooled plasmids of the ASKA library: 9.65 µg/mL
[2]; Replicate 3
  MIC value of E. coli K-12 BW25113 carrying the empty plasmid of the ASKA library: 7.43 µg/mL
  MIC value of E. coli K-12 BW25113 carrying the pooled plasmids of the ASKA library: 12.55 µg/mL
[2]
  Average fold change of the 3 replicates (MIC pooled ASKA library / MIC empty plasmid): 1.43

## CC[C@H](C)[C@@H]1NC(=O)CNC(=O)[C@H](CCCNC(=N)N)NC(=O)[C@H](Cc2ccc(O)cc2)NC(=O)[C@@H]2CSSC[C@H](NC1=O)C(=O)N[C@@H](Cc1ccc(O)cc1)C(=O)N[C@@H](CCCNC(=N)N)C(=O)N[C@@H](CCCCN)C(=O)N[C@H](C(=O)N[C@@H](CCCNC(=N)N)C(N)=O)CSSC[C@H](NC(=O)[C@H](Cc1c[nH]c3ccccc13)NC(=O)[C@@H](N)CCCNC(=N)N)C(=O)N[C@@H](Cc1ccccc1)C(=O)N[C@@H](CCCNC(=N)N)C(=O)N[C@@H](C(C)C)C(=O)N2 [TPII, tachyplesin II] (HELM PEPTIDE1{R.W.C.F.R.V.C.Y.R.G.I.C.Y.R.K.C.R.[am]}$PEPTIDE1,PEPTIDE1,3:R3-16:R3|PEPTIDE1,PEPTIDE1,7:R3-12:R3$$$V2.0; N-terminus and C-terminus assumed; bridges inferred)
[1]; incubation time 24 hour
  MIC in 30 °C: 5 µg/mL
  MIC in 37 °C: 5 µg/mL
[1]; incubation time 48 hour
  MIC in 30 °C: 5 µg/mL
  MIC in 37 °C: 6 µg/mL
[1]; incubation time 72 hour
  MIC in 30 °C: 6 µg/mL
  MIC in 37 °C: 6 µg/mL
[2]; [4]
  MIC fold change: 1
[2]; [5]
  MIC fold change: 1
[2]; [6]
  MIC fold change: 1
[2]
  Average fold change of the 3 replicates (MIC pooled ASKA library / MIC empty plasmid): 1.00
[3]
  ATI (activity/toxicity index), ratio MHC / MM: 155.22

## SWLSKTAKKLENSAKKRISEGIAIAIQGGPR [CP1, Cecropin P1]
[1]; median of MICs in E. coli K12
  MM (median of MICs): 2.95 µg/mL
[1]
  MIC: 100 µg/mL
[2]; Replicate 1
  MIC value of E. coli K-12 BW25113 carrying the empty plasmid of the ASKA library: 2.31 µg/mL
  MIC value of E. coli K-12 BW25113 carrying the pooled plasmids of the ASKA library: 2.31 µg/mL
[2]; Replicate 2
  MIC value of E. coli K-12 BW25113 carrying the empty plasmid of the ASKA library: 2.31 µg/mL
  MIC value of E. coli K-12 BW25113 carrying the pooled plasmids of the ASKA library: 2.31 µg/mL
[2]; Replicate 3
  MIC value of E. coli K-12 BW25113 carrying the empty plasmid of the ASKA library: 2.31 µg/mL
  MIC value of E. coli K-12 BW25113 carrying the pooled plasmids of the ASKA library: 2.31 µg/mL
[3]
  ATI (activity/toxicity index), ratio MHC / MM: > 847.45
[3]; human red blood cells, 1 h, 37 °C
  MHC (minimum haemolytic concentration, concentration causing 10% haemolysis): > 2500 µg/mL
